Assay results: ChEMBL document CHEMBL5465560, “Selectivity Literature for EUbOPEN Chemogenomic Library” (2024)

What was measured:
[1] = target: T1, Serine/threonine-protein kinase DCLK1 (Homo sapiens) (UniProt O15075); experiment: Selectivity interaction (KinomeScan (DiscoverX)) EUB0000092b DCLK1; details: at 10 µM
T1 sequence (whole entry): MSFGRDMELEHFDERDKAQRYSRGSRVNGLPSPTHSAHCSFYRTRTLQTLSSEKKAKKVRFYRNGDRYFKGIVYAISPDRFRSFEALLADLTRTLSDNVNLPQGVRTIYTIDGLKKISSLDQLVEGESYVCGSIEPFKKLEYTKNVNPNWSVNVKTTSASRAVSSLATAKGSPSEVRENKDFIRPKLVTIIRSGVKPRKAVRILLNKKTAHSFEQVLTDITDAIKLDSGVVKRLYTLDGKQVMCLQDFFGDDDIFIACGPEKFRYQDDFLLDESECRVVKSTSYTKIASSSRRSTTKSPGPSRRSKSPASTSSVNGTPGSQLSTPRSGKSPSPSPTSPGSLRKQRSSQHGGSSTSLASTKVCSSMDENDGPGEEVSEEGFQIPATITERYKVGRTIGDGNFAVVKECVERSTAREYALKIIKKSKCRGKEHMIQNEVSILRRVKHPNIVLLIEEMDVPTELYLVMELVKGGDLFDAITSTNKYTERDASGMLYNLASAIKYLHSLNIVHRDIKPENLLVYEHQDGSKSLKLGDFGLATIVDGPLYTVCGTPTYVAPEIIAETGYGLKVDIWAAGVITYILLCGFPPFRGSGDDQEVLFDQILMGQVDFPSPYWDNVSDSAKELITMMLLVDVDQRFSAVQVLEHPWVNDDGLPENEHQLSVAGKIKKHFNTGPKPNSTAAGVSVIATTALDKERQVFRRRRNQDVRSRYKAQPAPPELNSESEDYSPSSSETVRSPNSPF

[2] = target: Phosphatidylinositol 4-phosphate 3-kinase C2 domain-containing subunit beta (Homo sapiens) (UniProt O00750); experiment: Selectivity interaction (KinomeScan (DiscoverX)) EUB0000655a PIK3C2B; details: at 10 µM
[3] = target: NT-3 growth factor receptor (Homo sapiens, UniProt Q16288); experiment: Selectivity interaction (KinomeScan (DiscoverX)) EUB0001079a NTRK3; details: at 1 µM
[4] = target: Tyrosine-protein kinase CSK (Homo sapiens) (UniProt P41240); experiment: Selectivity interaction (Kinase panel (Z-LYTE Assay)) EUB0001632a CSK; details: at 10 µM
[5] = target: T2, 5-hydroxytryptamine receptor 2C (Homo sapiens) (UniProt P28335); experiment: Selectivity interaction (GPCR panel (PDSP screen)) EUB0000311b HTR2C; details: at 10 µM
T2 sequence (whole entry): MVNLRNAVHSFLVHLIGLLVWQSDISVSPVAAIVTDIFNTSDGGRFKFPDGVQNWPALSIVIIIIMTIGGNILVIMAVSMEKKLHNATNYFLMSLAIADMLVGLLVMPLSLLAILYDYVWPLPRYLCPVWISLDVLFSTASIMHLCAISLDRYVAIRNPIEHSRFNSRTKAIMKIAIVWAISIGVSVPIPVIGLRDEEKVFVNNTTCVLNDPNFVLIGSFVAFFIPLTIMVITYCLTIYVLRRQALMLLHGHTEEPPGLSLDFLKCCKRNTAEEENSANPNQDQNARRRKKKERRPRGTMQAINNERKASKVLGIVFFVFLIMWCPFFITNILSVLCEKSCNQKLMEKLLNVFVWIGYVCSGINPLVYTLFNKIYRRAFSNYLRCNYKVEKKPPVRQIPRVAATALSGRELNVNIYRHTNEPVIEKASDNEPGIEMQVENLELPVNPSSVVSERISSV

[6] = target: 5'-AMP-activated protein kinase catalytic subunit alpha-2 (Homo sapiens) (UniProt P54646); experiment: Selectivity interaction (ActivX KiNativ screen (kinase selectivity in THP-1 cell lysates)) EUB0000639a PRKAA2; assay type: subcellular; details: lysate, at 0.01 µM
[7] = target: Serine/threonine-protein kinase N1 (Homo sapiens, UniProt Q16512); experiment: Selectivity interaction (KinomeScan (DiscoverX)) EUB0000607a PKN1; details: at 10 µM
[8] = target: Homeodomain-interacting protein kinase 1 (Homo sapiens, UniProt Q86Z02); experiment: Selectivity interaction (KinomeScan (DiscoverX)) EUB0000695a HIPK1; details: at 100 nM
[9] = target: T3, Myosin light chain kinase family member 4 (Homo sapiens) (UniProt Q86YV6); details: at 10 µM
T3 sequence (whole entry): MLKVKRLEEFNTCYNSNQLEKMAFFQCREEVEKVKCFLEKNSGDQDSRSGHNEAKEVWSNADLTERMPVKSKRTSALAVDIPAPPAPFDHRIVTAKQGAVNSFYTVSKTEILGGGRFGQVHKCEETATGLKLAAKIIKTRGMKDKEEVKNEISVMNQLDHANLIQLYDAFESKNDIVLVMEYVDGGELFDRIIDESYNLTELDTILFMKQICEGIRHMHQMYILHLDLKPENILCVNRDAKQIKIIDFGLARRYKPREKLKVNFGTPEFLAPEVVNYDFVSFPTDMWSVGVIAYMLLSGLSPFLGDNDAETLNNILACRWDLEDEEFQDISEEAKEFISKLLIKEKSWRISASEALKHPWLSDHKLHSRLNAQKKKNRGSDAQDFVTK

[10] = target: T4, Protein kinase C epsilon type (Homo sapiens) (UniProt Q02156); experiment: Selectivity interaction (KinomeScan (DiscoverX)) EUB0000595a PRKCE; details: at 10 µM
T4 sequence (whole entry): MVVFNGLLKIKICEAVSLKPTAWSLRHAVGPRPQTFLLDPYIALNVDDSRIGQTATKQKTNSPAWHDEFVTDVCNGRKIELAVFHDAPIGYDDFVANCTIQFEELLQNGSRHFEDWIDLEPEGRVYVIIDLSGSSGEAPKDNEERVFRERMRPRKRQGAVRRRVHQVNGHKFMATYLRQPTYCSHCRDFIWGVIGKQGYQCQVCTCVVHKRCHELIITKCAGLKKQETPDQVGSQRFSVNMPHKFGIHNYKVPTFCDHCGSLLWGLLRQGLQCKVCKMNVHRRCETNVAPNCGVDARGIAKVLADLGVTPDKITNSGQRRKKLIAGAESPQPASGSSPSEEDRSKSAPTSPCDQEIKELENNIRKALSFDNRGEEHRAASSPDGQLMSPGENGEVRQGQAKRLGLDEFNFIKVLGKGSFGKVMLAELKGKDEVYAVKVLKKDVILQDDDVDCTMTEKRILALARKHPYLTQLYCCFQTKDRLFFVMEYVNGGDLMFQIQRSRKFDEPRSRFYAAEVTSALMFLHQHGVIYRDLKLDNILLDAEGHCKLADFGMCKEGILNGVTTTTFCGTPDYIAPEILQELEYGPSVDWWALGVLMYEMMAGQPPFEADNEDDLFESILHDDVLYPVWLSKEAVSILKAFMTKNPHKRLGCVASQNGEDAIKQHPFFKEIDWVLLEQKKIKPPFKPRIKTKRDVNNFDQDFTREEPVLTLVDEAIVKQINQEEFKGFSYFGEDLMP

[11] = target: Tyrosine-protein kinase HCK (Homo sapiens) (UniProt P08631); experiment: Selectivity interaction (KinomeScan (DiscoverX)) EUB0000618a HCK; details: at 10 µM
Sequence of Tyrosine-protein kinase HCK (Homo sapiens) (P08631 2-526 limits assumed): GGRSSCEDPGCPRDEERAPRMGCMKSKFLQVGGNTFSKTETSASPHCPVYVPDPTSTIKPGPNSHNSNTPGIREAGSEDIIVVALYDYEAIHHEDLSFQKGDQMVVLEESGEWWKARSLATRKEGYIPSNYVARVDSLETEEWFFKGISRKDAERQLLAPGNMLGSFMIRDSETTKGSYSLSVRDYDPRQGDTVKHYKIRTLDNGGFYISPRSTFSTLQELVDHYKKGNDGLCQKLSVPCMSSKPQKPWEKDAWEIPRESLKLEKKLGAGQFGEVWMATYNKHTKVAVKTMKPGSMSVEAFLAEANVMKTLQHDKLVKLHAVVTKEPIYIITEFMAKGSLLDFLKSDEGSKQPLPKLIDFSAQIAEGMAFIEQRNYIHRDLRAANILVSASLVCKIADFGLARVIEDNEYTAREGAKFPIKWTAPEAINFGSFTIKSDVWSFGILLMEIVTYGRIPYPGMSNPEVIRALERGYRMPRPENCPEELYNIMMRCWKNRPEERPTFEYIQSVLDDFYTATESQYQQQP

Sequence of Homeodomain-interacting protein kinase 1 (Q86Z02 whole entry, looked up): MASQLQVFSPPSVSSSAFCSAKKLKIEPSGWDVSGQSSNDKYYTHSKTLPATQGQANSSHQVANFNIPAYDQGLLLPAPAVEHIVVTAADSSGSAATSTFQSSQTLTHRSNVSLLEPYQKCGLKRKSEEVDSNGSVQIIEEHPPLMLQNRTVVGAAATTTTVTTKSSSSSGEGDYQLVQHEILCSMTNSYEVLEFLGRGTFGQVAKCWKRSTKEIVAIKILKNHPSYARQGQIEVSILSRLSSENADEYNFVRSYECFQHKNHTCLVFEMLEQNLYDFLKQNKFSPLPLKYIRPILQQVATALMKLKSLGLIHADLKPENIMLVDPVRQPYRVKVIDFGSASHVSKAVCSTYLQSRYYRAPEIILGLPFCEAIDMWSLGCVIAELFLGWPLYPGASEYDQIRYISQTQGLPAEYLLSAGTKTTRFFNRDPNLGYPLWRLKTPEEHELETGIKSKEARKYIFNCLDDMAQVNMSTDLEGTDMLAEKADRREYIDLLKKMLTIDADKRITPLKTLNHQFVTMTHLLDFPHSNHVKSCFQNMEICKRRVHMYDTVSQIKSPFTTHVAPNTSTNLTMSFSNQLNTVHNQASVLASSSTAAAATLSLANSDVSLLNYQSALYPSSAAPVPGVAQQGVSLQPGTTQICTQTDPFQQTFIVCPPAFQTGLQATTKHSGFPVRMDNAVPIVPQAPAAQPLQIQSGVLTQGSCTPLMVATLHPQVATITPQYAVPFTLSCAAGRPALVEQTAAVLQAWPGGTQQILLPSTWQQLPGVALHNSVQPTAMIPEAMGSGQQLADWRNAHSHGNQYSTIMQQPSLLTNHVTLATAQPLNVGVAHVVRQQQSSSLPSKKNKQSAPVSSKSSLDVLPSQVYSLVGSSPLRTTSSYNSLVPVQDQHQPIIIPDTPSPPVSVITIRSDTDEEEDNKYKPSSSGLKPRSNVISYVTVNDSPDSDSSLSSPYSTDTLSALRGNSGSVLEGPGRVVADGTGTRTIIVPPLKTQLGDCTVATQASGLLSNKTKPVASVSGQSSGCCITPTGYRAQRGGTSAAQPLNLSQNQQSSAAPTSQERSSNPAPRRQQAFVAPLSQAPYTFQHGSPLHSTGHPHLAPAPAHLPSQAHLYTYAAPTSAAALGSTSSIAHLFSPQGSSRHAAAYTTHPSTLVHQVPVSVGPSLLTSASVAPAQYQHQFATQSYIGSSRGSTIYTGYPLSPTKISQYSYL
Sequence of NT-3 growth factor receptor (Q16288 32-839 limits assumed): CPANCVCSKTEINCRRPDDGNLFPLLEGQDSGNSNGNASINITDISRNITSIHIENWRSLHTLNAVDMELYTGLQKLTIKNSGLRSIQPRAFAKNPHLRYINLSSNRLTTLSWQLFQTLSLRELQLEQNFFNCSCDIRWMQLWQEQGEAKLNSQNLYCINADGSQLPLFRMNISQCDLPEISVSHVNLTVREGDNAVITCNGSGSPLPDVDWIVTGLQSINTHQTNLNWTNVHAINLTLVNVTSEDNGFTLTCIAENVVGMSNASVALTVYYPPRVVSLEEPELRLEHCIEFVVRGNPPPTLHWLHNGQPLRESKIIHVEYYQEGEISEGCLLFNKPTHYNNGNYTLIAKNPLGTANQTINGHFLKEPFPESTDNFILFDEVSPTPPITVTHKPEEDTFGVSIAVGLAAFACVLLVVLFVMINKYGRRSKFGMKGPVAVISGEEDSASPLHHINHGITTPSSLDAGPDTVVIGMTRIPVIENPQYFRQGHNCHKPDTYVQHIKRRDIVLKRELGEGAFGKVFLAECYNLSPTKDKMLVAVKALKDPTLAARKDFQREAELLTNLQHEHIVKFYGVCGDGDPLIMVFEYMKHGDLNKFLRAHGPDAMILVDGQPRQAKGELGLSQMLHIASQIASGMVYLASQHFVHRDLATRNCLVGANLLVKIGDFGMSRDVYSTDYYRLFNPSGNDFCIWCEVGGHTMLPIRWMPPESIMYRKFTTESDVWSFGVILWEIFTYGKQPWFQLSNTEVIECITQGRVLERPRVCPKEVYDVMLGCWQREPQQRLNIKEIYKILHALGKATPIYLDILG
Sequence of 5'-AMP-activated protein kinase catalytic subunit alpha-2 (Homo sapiens) (P54646 whole entry, looked up): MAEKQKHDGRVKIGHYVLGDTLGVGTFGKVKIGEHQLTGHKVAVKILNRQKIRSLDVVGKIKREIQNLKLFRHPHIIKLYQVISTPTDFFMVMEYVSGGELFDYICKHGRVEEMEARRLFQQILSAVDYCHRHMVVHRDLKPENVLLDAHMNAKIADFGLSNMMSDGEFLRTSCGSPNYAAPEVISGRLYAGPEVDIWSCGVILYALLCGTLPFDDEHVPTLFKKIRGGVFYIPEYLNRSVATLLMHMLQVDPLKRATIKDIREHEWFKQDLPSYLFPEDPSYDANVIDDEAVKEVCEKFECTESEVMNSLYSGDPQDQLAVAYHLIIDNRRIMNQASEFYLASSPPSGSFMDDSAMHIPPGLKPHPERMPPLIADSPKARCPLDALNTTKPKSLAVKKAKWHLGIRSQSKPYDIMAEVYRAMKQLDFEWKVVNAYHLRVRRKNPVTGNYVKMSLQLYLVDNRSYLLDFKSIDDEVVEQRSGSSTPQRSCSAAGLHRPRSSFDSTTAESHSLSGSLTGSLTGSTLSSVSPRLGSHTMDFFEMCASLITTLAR
Sequence of Serine/threonine-protein kinase N1 (Q16512 2-942 limits assumed): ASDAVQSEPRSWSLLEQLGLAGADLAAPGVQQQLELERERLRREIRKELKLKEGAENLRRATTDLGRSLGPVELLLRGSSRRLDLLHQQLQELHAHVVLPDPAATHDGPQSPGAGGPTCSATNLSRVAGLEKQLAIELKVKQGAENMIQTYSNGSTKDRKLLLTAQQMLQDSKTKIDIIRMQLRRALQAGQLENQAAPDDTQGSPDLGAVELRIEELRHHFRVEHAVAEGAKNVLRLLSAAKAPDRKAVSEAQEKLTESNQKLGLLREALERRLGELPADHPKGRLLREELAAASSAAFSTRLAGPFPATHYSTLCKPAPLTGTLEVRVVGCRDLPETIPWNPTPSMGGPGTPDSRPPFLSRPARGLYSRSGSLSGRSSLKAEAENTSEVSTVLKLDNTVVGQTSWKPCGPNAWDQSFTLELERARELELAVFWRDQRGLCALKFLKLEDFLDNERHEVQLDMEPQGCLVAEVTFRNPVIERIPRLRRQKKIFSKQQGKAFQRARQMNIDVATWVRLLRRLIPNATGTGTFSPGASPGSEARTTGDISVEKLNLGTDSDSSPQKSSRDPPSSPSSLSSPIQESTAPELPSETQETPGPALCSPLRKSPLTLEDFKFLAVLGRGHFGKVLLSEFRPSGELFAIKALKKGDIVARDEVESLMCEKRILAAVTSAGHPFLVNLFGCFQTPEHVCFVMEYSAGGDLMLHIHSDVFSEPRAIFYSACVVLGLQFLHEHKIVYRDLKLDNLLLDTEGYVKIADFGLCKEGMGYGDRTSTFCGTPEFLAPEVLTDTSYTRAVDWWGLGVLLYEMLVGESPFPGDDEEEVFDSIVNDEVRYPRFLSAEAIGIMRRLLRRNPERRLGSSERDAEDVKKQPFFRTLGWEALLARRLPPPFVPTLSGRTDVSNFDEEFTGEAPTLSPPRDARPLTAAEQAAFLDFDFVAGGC
Sequence of Tyrosine-protein kinase CSK (Homo sapiens) (P41240 2-450 limits assumed): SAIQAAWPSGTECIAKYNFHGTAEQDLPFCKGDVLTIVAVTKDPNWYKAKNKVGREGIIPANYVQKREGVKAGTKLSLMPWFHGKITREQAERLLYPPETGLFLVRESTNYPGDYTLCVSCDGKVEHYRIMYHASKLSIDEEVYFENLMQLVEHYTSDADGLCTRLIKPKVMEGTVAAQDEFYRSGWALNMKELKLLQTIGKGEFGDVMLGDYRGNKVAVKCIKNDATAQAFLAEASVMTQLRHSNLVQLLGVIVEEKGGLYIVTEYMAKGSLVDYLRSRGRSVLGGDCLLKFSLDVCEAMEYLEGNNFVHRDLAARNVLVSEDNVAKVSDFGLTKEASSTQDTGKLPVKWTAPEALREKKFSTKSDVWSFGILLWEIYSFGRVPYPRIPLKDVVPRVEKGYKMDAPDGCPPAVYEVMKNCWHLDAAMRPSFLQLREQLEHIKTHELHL

**Q.** For `CCC(=O)N1CCN(c2ccc(-n3c(=O)ccc4cnc5ccc(-c6cnc7ccccc7c6)cc5c43)cc2C(F)(F)F)CC1`, which % of control [1] is on record?
**A.** 100%

**Q.** `CN(C)CCOc1ccc(-c2nc(-c3ccncc3)c(-c3ccc4c(c3)CC/C4=N\O)[nH]2)cc1` was tested. Which % of control [2] did it give?
**A.** 64%

**Q.** For `Nc1cnc(N2CCc3cc(S(=O)(=O)Nc4c(F)cc(Cl)cc4F)cc(N4CCCC4=O)c32)nc1` [TP-020n], which % of control [3] is on record?
**A.** 97%

**Q.** With `Cn1cc(-n2cnc3c(NCc4nc5cc(Cl)c(Cl)cc5[nH]4)nc(N4CCOCC4)nc32)cn1` as the molecule, how does the % of control [4] read?
**A.** 10.7%

**Q.** How did the % of inhibition [5] turn out when `CCc1ccccc1C(=O)Nc1n[nH]c2c(C)c(F)c(C3C(C#N)=C(C)N(C)C(C)=C3C#N)cc12` [BAY-3827] was run?
**A.** 20%

**Q.** With `CC[C@@H]1[C@H](F)C(=O)N[C@@H]1COc1nccc2cc(C(N)=O)c(OC)cc12` [ZIMLOVISERTIB] as the molecule, how does the % of inhibition [6] read?
**A.** 14.5%

**Q.** For `CNC(=O)Nc1ccc(-c2nc(N3CC4CCC(C3)O4)c3cnn(C4CCC5(CC4)OCCO5)c3n2)cc1`, which % of control [7] is on record?
**A.** 100%

**Q.** For `Cc1cc(F)c(C(=O)Nc2cccc(-c3nncn3C(C)C)n2)cc1-n1cnc(C2CC2)c1`, which % of control [8] is on record?
**A.** 100%

**Q.** Which results are given for `COCC(=O)NC/C=C/c1ccc2ncnc(Nc3ccc(Oc4ccc(C)nc4)c(C)c3)c2c1` [CP-724714]?
**A.** % of control [9]: 100%; % of control [10]: 100%

**Q.** With `O[C@H]1CC[C@H](Nc2ncc3nc(Nc4c(F)cc(F)cc4F)n([C@H]4CCOC4)c3n2)CC1` as the molecule, how does the % of control [11] read?
**A.** 100%
